The values that follow come from patent US11351178B2, “Selective HDAC6 inhibitors” (ITALFARMACO S.P.A., priority 2017, dated 2022).

One data set addresses T1, recombinant human HDAC3 (Homo sapiens, UniProt O15379).
T1 construct: purchased BPS 50003
As to the kind of experiment: Enzymatic screening on recombinant human HDAC3. Type of data set: biochemical. Conditions: Table 3. How it is done: Enzymatic activity on recombinant human HDAC6 and HDAC3 was evaluated (Table 2) for each synthesized compound.
(§1) After a period of incubation at 30° C. (incubation times vary for different isoforms and are shown in table 1) 25 μL of solution containing the substrate were added. As substrate, FLUOR DE LYS® deacetylase substrate (Enzo Life Sciences, cat #BML-K1104, FdL), FLUOR DE LYS®-Green substrate (Enzo Life Sciences, cat #BML-K1572 FdL_G) and trifluoroacetyl-L-lysine (Tfal)-2× concentrated solution in 25 mM Tris-HCl, pH 8, 130 mM NaCl 0.05% Tween-20 10% glycerol) were used. Following a reaction period at 30° C.

In a further data set the target is T2, HDAC4 (Homo sapiens, UniProt P56524).
T2 construct: purchased BPS 50004
As to the kind of experiment: Enzymatic test HDAC4. Conditions: Table 3. Type of data set: biochemical. How it is done: as §1

A further data set has as its target T3, HDAC10 (Homo sapiens, UniProt Q969S8).
T3 construct: purchased BPS 50010
T3 sequence (Q969S8 1-669): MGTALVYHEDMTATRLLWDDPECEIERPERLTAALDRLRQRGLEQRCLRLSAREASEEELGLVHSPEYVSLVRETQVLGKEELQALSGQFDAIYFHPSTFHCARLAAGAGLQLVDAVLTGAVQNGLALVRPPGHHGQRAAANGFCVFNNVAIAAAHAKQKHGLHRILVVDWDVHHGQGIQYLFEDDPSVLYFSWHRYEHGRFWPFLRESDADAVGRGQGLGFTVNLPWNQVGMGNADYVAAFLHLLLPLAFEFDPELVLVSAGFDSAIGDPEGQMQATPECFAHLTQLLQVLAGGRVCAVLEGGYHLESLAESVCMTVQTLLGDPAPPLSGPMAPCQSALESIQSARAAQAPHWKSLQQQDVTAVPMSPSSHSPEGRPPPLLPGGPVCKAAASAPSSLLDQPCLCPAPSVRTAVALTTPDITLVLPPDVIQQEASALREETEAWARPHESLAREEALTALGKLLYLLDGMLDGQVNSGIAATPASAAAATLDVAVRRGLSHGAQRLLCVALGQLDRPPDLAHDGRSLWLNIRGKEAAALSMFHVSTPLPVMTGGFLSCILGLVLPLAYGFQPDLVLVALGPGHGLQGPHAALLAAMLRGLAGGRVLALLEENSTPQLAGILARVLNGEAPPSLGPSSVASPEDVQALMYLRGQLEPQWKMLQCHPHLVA
As to the kind of experiment: Enzymatic test HDAC10. Type of data set: biochemical. Conditions: Table 3.

The target of a further data set is T4, HDAC9 (Homo sapiens, UniProt Q9UKV0).
T4 construct: purchased BPS 50009
As to the kind of experiment: Enzymatic test HDAC9. Type of data set: biochemical. Conditions: Table 3. The method, then:
as §1

Another data set addresses T5, HDAC8 (Homo sapiens, UniProt Q9BY41).
T5 construct: purchased BPS 50008
T5 sequence (Q9BY41 1-377): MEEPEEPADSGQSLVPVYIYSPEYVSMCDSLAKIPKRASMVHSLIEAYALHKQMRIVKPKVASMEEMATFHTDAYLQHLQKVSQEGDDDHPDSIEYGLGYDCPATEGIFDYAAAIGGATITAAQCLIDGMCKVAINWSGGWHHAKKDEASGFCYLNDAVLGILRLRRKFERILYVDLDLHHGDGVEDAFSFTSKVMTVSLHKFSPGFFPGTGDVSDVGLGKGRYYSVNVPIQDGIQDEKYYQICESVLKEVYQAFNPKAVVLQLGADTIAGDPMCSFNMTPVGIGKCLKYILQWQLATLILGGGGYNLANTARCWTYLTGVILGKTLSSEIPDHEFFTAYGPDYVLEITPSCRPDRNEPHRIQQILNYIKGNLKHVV
As to the kind of experiment: Enzymatic test HDAC8. The data set is classed as biochemical. Conditions: Table 3.

Data set [1] is described as follows: Stability in human plasma. Type of data set: in vitro ADME. As to conditions: after 4 hours, 37° C. Put shortly: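 Compounds incubated at 37° C in rat or human plasma at 50 μM (UV/HPLC) or 1 or 2 μM (LC-MS/MS) for 0–4 h. Reaction stopped with acidified acetonitrile on ice; percent remaining versus initial amount and plasma half-life calculated.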
The nature of data set [2]: Stability to Phase I metabolism in human S9 liver fraction. The data set is classed as in vitro ADME. As to conditions: human, 90 min, pH 7.4. Put shortly:
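Phase I stability in human and rat hepatic S9 at 37 °C, sampled up to 90 min. Samples were stopped with acidified acetonitrile on ice, then quantified by HPLC-UV or LC-MS/MS.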

Data set [3] relates to peripheral blood mononuclear cells (PBMCs). As to the kind of experiment: Cytotoxicity on PBMCs (CellTiter 96). Type of data set: cell-based. Conditions: PBMC, 72 h; read-out: PBMC TOXICITY (72 h). In short, it runs like this: (§2)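 Mitochondrial-function readout (CellTiter 96 Aqueous One) after 72 h compound exposure, begun 24 h post-seeding. Dose ranges: 697 cells, 1 to 10000 nM at 2×10^4 cells/well; PBMCs, 1.5 to 10000 nM at 5×10^5 cells/well.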

Data set [4] concerns B 697 promyelocytic cell line. As to the kind of experiment: Cytotoxicity on 697 cell line (CellTiter 96). The data set is classed as cell-based. As to conditions: 72 hours incubation, read-out: 697 TOXICITY
In short, it runs like this: as §2

T1 sequence (O15379 whole entry): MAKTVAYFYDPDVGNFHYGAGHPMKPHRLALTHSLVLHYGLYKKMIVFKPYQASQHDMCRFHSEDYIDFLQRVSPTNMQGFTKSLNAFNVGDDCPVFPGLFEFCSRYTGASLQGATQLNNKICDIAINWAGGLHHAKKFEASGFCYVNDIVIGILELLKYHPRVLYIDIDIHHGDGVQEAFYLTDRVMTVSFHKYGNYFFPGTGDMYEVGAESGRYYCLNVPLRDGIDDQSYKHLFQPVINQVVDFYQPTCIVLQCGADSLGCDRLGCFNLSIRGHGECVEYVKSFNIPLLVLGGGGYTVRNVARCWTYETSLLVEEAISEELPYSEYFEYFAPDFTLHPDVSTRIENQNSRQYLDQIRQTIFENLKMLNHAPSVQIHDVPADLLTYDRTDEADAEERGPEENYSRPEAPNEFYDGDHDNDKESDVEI
T1 sequence (Q9Y618 395-489 partner limits assumed): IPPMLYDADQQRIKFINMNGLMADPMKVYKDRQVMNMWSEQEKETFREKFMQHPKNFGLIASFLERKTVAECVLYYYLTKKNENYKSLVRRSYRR
T2 sequence (P56524 627-1084 limits assumed): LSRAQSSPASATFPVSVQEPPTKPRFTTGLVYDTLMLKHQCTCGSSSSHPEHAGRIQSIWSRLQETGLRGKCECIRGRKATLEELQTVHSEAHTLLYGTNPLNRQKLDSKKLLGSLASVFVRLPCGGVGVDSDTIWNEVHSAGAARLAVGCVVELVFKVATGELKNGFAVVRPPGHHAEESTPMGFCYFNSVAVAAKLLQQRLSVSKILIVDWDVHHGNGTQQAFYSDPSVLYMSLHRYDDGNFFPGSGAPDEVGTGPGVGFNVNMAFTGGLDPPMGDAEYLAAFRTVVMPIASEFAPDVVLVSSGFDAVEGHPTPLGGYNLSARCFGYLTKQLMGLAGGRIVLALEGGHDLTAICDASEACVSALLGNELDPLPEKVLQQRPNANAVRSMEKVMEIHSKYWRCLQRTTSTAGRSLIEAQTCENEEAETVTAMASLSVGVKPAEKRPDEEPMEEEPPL
T4 sequence (Q9UKV0 1-1066 isoform Q9UKV0-5): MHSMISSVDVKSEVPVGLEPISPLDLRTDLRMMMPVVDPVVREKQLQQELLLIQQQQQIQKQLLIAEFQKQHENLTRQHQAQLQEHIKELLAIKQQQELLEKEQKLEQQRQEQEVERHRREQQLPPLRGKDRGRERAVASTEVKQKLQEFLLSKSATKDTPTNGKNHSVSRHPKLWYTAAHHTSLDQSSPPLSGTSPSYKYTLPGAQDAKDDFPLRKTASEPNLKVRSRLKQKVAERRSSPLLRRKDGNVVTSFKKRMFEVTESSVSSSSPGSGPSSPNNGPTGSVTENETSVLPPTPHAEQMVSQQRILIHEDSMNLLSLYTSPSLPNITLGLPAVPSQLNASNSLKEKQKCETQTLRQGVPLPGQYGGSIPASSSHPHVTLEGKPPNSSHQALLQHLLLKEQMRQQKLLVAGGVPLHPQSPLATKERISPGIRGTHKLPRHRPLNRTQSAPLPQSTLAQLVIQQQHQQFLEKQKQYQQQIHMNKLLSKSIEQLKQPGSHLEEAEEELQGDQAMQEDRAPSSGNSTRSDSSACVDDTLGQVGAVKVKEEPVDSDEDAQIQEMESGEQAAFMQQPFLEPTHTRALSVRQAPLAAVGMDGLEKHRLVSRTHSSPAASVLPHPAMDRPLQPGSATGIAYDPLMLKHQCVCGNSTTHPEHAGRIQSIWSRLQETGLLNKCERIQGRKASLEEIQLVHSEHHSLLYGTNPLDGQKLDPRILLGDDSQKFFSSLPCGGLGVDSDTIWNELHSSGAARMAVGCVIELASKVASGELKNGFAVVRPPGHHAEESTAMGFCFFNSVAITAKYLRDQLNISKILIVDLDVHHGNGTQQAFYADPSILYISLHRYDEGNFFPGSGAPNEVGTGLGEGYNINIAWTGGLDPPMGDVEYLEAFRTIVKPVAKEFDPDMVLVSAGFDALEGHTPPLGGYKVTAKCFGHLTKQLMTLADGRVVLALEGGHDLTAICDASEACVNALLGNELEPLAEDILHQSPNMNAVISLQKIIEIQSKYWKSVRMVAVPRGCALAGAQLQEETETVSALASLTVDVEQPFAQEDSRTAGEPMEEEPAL

Regarding `CN(C)c1cccc(-c2nnc(Sc3c(F)cc(C(=O)NO)cc3F)n2C)c1` [comp. 80, 4-[[5-[3-(dimethylamino)phenyl]-4-methyl-1,2,4-triazol-3-yl]sulfanyl]-3,5-difluoro-benzenecarbohydroxamic acid], the IC50 on recombinant human HDAC3 is 1870 nM; on HDAC4, 731 nM; on HDAC10, 5580 nM; against HDAC9 it was 426 nM; at HDAC8, 548 nM.

In the case of `Nn1c(Sc2ccc(C(=O)NO)cc2)nnc1-c1ccc(OC(F)F)cc1` [comp. 28, 4-[[4-amino-5-[4-(difluoromethoxy)phenyl]-1,2,4-triazol-3-yl]sulfanyl]benzenecarbohydroxamic acid], the IC50 is 373 nM on recombinant human HDAC3; 1330 nM against HDAC4; 636 nM against HDAC10; 328 nM against HDAC9; 270 nM on HDAC8.

In the case of `O=C(NO)c1cc(F)c(Cn2nnnc2-c2ccccn2)c(F)c1` [comp. 13, 3,5-difluoro-N-hydroxy-4-((5-(pyridin-2-yl)-1H-tetrazol-1-yl)methyl)benzamide], the IC50 at recombinant human HDAC3 came out at 2490 nM; at HDAC4, 606 nM; on HDAC10, 2680 nM; at HDAC9, 640 nM; on HDAC8 it was 490 nM. Besides, in [1], the “residual percentage in human plasma” value was determined as 94%. Moreover, the “residual percentage in human S9 fraction” value in [2] was 98%.

For the molecule `Cc1cc(-c2nnc(Sc3ccc(C(=O)NO)cc3)n2C)nn1C` [comp. 85, 4-[[5-(1,5-dimethylpyrazol-3-yl)-4-methyl-1,2,4-triazol-3-yl]sulfanyl]benzenecarbohydroxamic acid], the IC50 is 339 nM on recombinant human HDAC3; 2000 nM in data set [3]; 1160 nM in [4]; 1030 nM on HDAC4; 954 nM against HDAC10; 452 nM at HDAC9. Further, the IC50 against HDAC8 was 216 nM.

As to `CCN(CC)S(=O)(=O)c1cccc(-c2nnc(Sc3ccc(C(=O)NO)cc3)n2C)c1` [comp. 66, 4-[[5-[3-(diethylsulfamoyl)phenyl]-4-methyl-1,2,4-triazol-3-yl]sulfanyl]benzenecarbohydroxamic acid], the IC50 amounted to 921 nM on recombinant human HDAC3; 481 nM on HDAC4; 1340 nM at HDAC10; 168 nM against HDAC9; 419 nM against HDAC8.

With `O=C(NO)c1ccc(Cn2nnc(-c3ccc(C(F)(F)F)cc3)n2)cc1` [comp. 23, 4-[[5-[4-(trifluoromethyl)phenyl]tetrazol-2-yl]methyl]benzenecarbohydroxamic acid], the IC50 came out at 568 nM at recombinant human HDAC3; 4240 nM against HDAC4; 1100 nM on HDAC10; 2690 nM on HDAC9; 2830 nM on HDAC8.

For `CN(C)c1cccc(-c2nnc(Sc3ccc(C(=O)NO)cc3)n2C)c1` [comp. 77, 4-[[5-[3-(dimethylamino)phenyl]-4-methyl-1,2,4-triazol-3-yl]sulfanyl]benzenecarbohydroxamic acid], the IC50 is 1150 nM at recombinant human HDAC3; 2000 nM in data set [3]; 11100 nM in data set [4]; 2650 nM at HDAC4; 2810 nM against HDAC10; 1730 nM on HDAC9. Besides, the IC50 against HDAC8 stood at 795 nM.

With `CCN(CC)S(=O)(=O)c1cccc(-c2nnc(Sc3ccc(C(=O)NO)cc3)n2N)c1` [comp. 61, 4-[[4-amino-5-[3-(diethylsulfamoyl)phenyl]-1,2,4-triazol-3-yl]sulfanyl]benzenecarbohydroxamic acid], the IC50 on recombinant human HDAC3 was found to be 488 nM; against HDAC4 it was 1590 nM; against HDAC10, 991 nM; against HDAC9 it was 884 nM; against HDAC8 it was 494 nM.
